Measured values as given in patent EP4596537A1, “NOVEL FLUORENE DERIVATIVE COMPOUND AND USE THEREOF” (JD Bioscience Inc., priority 2022, dated 2024).

How the values were obtained:
C57BL6J mice [1] = experiment: LPS-induced sepsis animal model, viability; type: in vivo; conditions: 15 mg/kg i.p. 30 min before 50 mg/kg LPS
Method: 50 mg/kg of lipopolysaccharide (LPS) administration dose corresponds to the 'half lethal dose' that causes death of one half of the population within 24 hours. […] The animal experiment was conducted with six 8-week-old male C57BL6J mice per group. Each mouse was intraperitoneally administered 15 mg/kg of Compound 1 or pretreated with 100 µL of 10% DMSO (vehicle control). 30 minutes later, 50 mg/kg lipopolysaccharide was intraperitoneally injected into each mouse, and the viability was examined for 80 hours, and the results are shown in FIG. 9 and Table 2.

C57BL6J mice [2] = experiment: Acute kidney ischemic reperfusion (IR) injury animal model; type: in vivo; conditions: 4 µg/kg and 8 µg/kg via tail vein; vs vehicle-treated IR group
Method: Vehicle and Compound 1 (4 µg/kg or 8 µg/kg) were administered to 8-week-old male C57BL6J mice via the tail vein 24 hours before, 1 hour before, and 12 hours after ischemic reperfusion (IR) surgery. The surgery was performed by blocking the artery leading to the kidney to induce ischemia for 37 minutes. The blocked artery was released, and 24 hours later, the mice were anesthetized and autopsied. Other part was used to synthesize cDNA, and a kidney damage marker, NGAL was identified by real-time PCR. And serum was separated from the blood, and creatinine, which is a kidney damage marker in the serum, was examined, and the results are shown in FIG. 3.

CC(C(=O)NNc1ccc(F)cc1)n1cc(-c2cc(F)cc3c2-c2ccccc2C3(O)C(F)(F)F)cn1 (stereo not drawn) [Example 1, 2-(4-(2-fluoro-9-hydroxy-9-(trifluoromethyl)-9H-fluoren-4-yl)-1H-pyrazol-1-yl)-N'-(4-fluorophenyl)propanehydrazide]
Viability (%) (C57BL6J mice [1]; Time 0 h): 100% | Viability (%) (C57BL6J mice [1]; Time 20 h): 100% | Viability (%) (C57BL6J mice [1]; Time 60 h): 50% | Viability (%) (C57BL6J mice [1]; Time 70 h): 50% | Viability (%) (C57BL6J mice [1]; Time 80 h): 50% | RNA expression of NGAL (kidney) (C57BL6J mice [2]): significantly reduced | apoptosis of kidney tissue (TUNEL staining) (C57BL6J mice [2]): significant reduction | renal tubular tissue damage (H&E staining) (C57BL6J mice [2]): significant reduction | serum creatinine (C57BL6J mice [2]): significantly reduced
